Results: patent US5405843A, “Quinoline derivatives” (Mitsui Toatsu Chemicals, Incorporated, priority 1988, dated 1995)

Tests used:
[1] = system: Vincristine-resistant strain P388/VCR cells of mouse leukemia P388 cells; assay: Potentiating effect on vincristine in mice having vincristine-resistant mouse leukemia (survival); assay type: in vivo, mouse (female CDFI mice); conditions: compound 30 mg/kg + vincristine 100 ug/kg, peritoneal, once a day for 5 days; for T/C (rate of life prolongation): control = 100
[2] = system: Adriamycin resistant strain 2780 AD cells of human ovarian cancer A2780 cells; assay: Potentiating effect on incorporation of 3H-vincristine into adriamycin-resistant cancer cells; assay type: cell-based; conditions: 20 nM 3H-vincristine; for activity at 1 µg/mL / activity at 10 µg/mL: Homo sapiens, 2780AD, 2 h, control = 100, read-out: 3H-vincristine accumulation; for activity at 10 µg/mL: compound 10 μg/ml
Experimental: Potentiating Effect of the Compounds on Incorporation of Anticancer Drugs into Drug-resistant Cancer Cells
Adriamycin resistant strain 2780 AD cells of human ovarian cancer A2780 cells (A. M. Rogan et al., Science 224, 994-996, 1984) were suspended at a concentration of 1×10^6 /ml in RPMI-1640 medium supplemented with 5% fetal calf serum, and 1 ml of the cancer cell suspension was dispensed into each well of a multi-well culture plate (24 wells, […] in diameter) and then incubated at 37° C. in an atmosphere of 5% CO2. After 24 hours incubation, the medium in each well was replaced by 0.5 ml of RPMI-1640 medium supplemented containing 20 nM ^3 H-vincristine (1×10^4 dpm/pmol), 5% fetal calf serum and 10 mM Hepes buffer. Five microliters of a solution of the compound to be tested, which had been dissolved in DMSO and diluted with […] (at a concentration of 1.0 microgram/ml or 10.0 micrograms/ml), was added to each well and the incubation was continued at 37° C. in 5% CO2 for 2 hours. The resultant cells were washed in cold saline-phosphate buffer. In each well was added 0.5 ml of 0.2N NaOH, and the resulting cell suspension in each well was independently transferred into a vial and then heated in a water bath at 56° C. for 30-60 minutes to dissolve the cells. After adding 4 ml of acid aquazole 2, the amount of ^3 H-vincristine incorporated into the cells was determined by a fluid scintillation counter.

| Compound | activity at 1 µg/mL ([2]; compound 1 μg/ml) | activity at 10 µg/mL [2] | also measured |
| --- | --- | --- | --- |
| OC(CNc1cccc2ncccc12)CN1CCN(C(c2ccccc2)c2ccccc2)CC1 (centres unmarked) [Example 27, 5-[3-(4-Diphenylmethylpiperazine-1-yl)-2-hydroxypropylamino]quinoline] | – | – | Average surviving period [1]: 12.3 ± 0.3 days; T/C (rate of life prolongation) [1]: 119% |
| OC(COc1cccc2ncccc12)CN1CCN(C2c3ccccc3COc3ccccc32)CC1 (centres unmarked) [Example 6, 5-[3-(4-(6,11-Dihydrodibenzo[b,e]oxepine-11-yl)piperazine-1-yl)-2-hydroxypropoxy]quinoline] | – | – | Average surviving period [1]: 13.4 ± 0.7 days; T/C (rate of life prolongation) [1]: 128% |
| Cc1ccc(OCC(O)CN2CCN(C(c3ccccc3)c3ccccc3)CC2)c2cccnc12 (centres unmarked) [Example 24, 5-[3-(4-Diphenylmethylpiperazine-1-yl)-2-hydroxypropoxy]-8-methylquinoline] | 146% | 931% | – |
| OC(COc1cccc2nc(Cl)ccc12)CN1CCC(C(O)(c2ccccc2)c2ccccc2)CC1 (centres unmarked) [Example 19, 5-[3-(4-(Diphenyl-hydroxymethyl)piperidine-1-yl)-2-hydroxypropoxy]-2-chloroquinoline] | 374% | 524% | – |
| OC(CSc1cccc2ncccc12)CN1CCN(C2c3ccccc3CCc3ccccc32)CC1 (centres unmarked) [Example 75, 5-[3-(4-(Dibenzosuberane-5-yl)piperazine-1-yl)-2-hydroxy-propylthio]quinoline] | 587% | – | – |
| Cc1ccc2ncccc2c1OCC(O)CN1CCN(C(c2ccccc2)c2ccccc2)CC1 (centres unmarked) [Example 23, 5-[3-(4-Diphenylmethylpiperazine-1-yl)-2-hydroxypropoxy]-6-methylguinoline] | 723% | – | – |
| OC(CNCCNC1c2ccccc2CCc2ccccc21)COc1cccc2ncccc12 (centres unmarked) [Example 62, 5-[3-(N'-(Dibenzosuberane-5-yl)ethylenediamino)-2-hydroxypropoxy]quinoline] | 525% | – | – |
| CSc1ccc2c(OCC(O)CN3CCN(C(=O)C(c4ccccc4)c4ccccc4)CC3)cccc2n1 (stereo not drawn) [Example 65, 2-Methylthio-5-[3-(4-(α,α-diphenylacetyl)piperazine-1-yl)-2-hydroxypnopoxy]quinoline] | 297% | 985% | – |
| Cc1cc(C(F)(F)F)nc2cccc(OCC(O)CN3CCN(C4c5ccccc5CCc5ccccc54)CC3)c12 (centres unmarked) [Example 54, 2-Trifluoromethyl-4-methyl-5-[3-(4-(dibenzosuberane-5-yl)piperazine-1-yl)-2-hydroxypropoxy]quinoline] | 253% | 777% | – |
| CN(C(=O)CCN1CCN(C2c3ccccc3CCc3ccccc32)CC1)c1cccc2ncccc12 [Example 38, 5-[N-methyl-(3-(4-dibenzosuberanylpiperazine-1-yl)-propionamide)]quinoline] | 378% | 819% | – |
| OC(COc1cccc2ncccc12)CN1CCC(C(c2ccccc2)c2ccccc2)CC1 (centres unmarked) [Example 14, 5-[3-(4-(Diphenylmethyl)piperidine-1-yl)-2-hydroxypropoxy]quinoline] | 119% | 871% | – |
| OC(COc1ccc(Cl)c2ncccc12)CN1CCN(C(c2ccccc2)c2ccccc2)CC1 (centres unmarked) [Example 29, 5-[3-(4-Diphenylmethylpiperazine-1-yl)-2-hydroxypropoxy]-8-chloroquinoline] | 246% | – | – |
| OC(COc1cccc2ncncc12)CN1CCN(C(c2ccccc2)c2ccccc2)CC1 (centres unmarked) [Example 51, 5-[3-(4-Diphenylmethylpiperazine-1-yl)-2-hydroxypropoxy]quinazoline] | 534% | 798% | – |
| OC(COc1cccc2ccncc12)CN1CCN(C(c2ccccc2)c2ccccc2)CC1 (centres unmarked) [Example 47, 8-[3-(4-Diphenylmethylpiperazine-1-yl)-2-hydroxypropoxy]isoquinoline] | 322% | 879% | – |
| OC(COc1cccc2cccnc12)CN1CCN(C(c2ccccc2)c2ccccc2)CC1 (centres unmarked) [Example 49, 8-[3-(4-Diphenylmethylpiperazine-1-yl)-2-hydroxypropoxy]-quinoline] | 213% | 612% | – |
| Cc1cc(C)c2c(OCC(O)CN(C)CCN(C)C3c4ccccc4CCc4ccccc43)cccc2n1 (centres unmarked) [Example 66, 2,4-Dimethyl-5-[3-(N,N'-dimethyl-N'-(dibenzosuberane-5-yl)ethylenediamino)-2-hydroxypropoxy]quinoline] | 488% | – | – |
| OC(CNCC(c1ccccc1)c1ccccc1)COc1cccc2ncccc12 (centres unmarked) [Example 70, 5-[3-(2,2-Diphenylethylamino)-2-hydroxypropoxy]quinoline] | 252% | 960% | – |
| COc1ccc(OCC(O)CN2CCN(C(c3ccccc3)c3ccccc3)CC2)c2cccnc12 (centres unmarked) [Example 25, 5-[3-(4-Diphenylmethylpiperazine-1-yl)-2-hydroxypropoxy]-8-methoxyquinoline] | 858% | – | – |
| OC(COc1cccc2cnccc12)CN1CCCN(C(c2ccccc2)c2ccccc2)CC1 (centres unmarked) [Example 45, 5-[3-(4-Diphenylmethylhomopiperazine-1-yl)-2-hydroxypropoxy]isoquinoline] | 307% | 982% | – |
| OC(COc1cccc2cnccc12)CN1CCN(C(c2ccccc2)c2ccccc2)CC1 (centres unmarked) [Example 43, 5-[3-(4-Diphenylmethylpiperazine-1-yl)-2-hydroxypropoxy]isoquinoline] | 531% | – | – |
| OC(CSc1cccc2ncccc12)CN1CCN(C(c2ccccc2)c2ccccc2)CC1 (centres unmarked) [Example 74, 5-[3-(4-Diphenylmethylpiperazine-1-yl)-2-hydroxypropylthio]qunoline] | – | – | 3H-vincristine accumulation ([2]; compound 1 μg/ml, 2 hours, control = 100, 120 min): 626% |
| OC(COc1cccc2ncccc12)CN1CCC(=C2c3ccccc3C=Cc3ccccc32)CC1 (centres unmarked) [Example 77, 5-[3-(4-(Dibenzosuberene-5-ylidene)piperidine-1-yl)2-hydroxypropoxy]quinoline] | – | – | Average surviving period [1]: 13.8 ± 1.2 days; T/C (rate of life prolongation) [1]: 129% |
| CC(=O)OC(CN1CCN(C(c2ccccc2)c2ccccc2)CC1)CN(C(C)=O)c1cccc2ncccc12 (centres unmarked) [Example 39, 5-[N-Acetyl-(2-acetoxy-3-(4-diphenylmethylpiperazine-1-yl)propylamino)]quinoline] | 236% | 908% | – |
| CN(CCN(C)C1c2ccccc2CCc2ccccc21)CC(O)COc1cccc2ncccc12 (centres unmarked) [Example 63] | 773% | – | – |
| Cc1cc(C)c2c(OCC(O)CN3CCC(=C(c4ccccc4)c4ccccc4)CC3)cccc2n1 (centres unmarked) [Example 67, 2,4-Dimethyl-5-[3-(4-diphenylmethylenepiperizine-1-yl)-2-hydroxypropoxy]quinoline] | 730% | – | – |
| O=[N+]([O-])c1ccc(OCC(O)CN2CCN(C(c3ccccc3)c3ccccc3)CC2)c2cccnc12 (centres unmarked) [Example 26, 5-[3-(4-Diphenylmethylpiperazine-1-yl)-2-hydroxypropoxy]-8-nitroquinoline] | 177% | – | – |
| CN(CCC=C1c2ccccc2CCc2ccccc21)CC(O)COc1cccc2ncccc12 (centres unmarked) [Example 68, 5-(3[N-{3-dibenzosuberane-5-ylidene)propy}-N-methylamino-2-hydroxypropoxy)quinoline] | 671% | – | – |
| OC(COc1ccnc2ccccc12)CN1CCN(C(c2ccccc2)c2ccccc2)CC1 (centres unmarked) [Example 46, 4-[3-(4-Diphenylmethylpiperazine-1-yl)-2-hydroxypropoxy]quinoline] | 142% | 987% | – |
